Usually IC50 stands for the midpoint of a concentration-inhibition curve.

The values that follow come from patent publication EP4624465A1, “COMPOUND SERVING AS DDR1 KINASE INHIBITOR, AND MEDICINE” (Nippon Shinyaku Co., Ltd., priority 2022, dated 2024).

Assay [1] deals with T1, DDR1 kinase (Homo sapiens, UniProt Q08345). Description: Evaluation of DDR1 kinase inhibition in DDR1-expressing U2OS cells (type I collagen stimulation, PathHunter detection). The assay is classed as cell-based. The arrangement: host or cells: U2OS. Conditions: type I collagen 50 µg/mL stimulation, duplicate, read-out: DDR-1 IC50.
Target sequence in this assay (Q08345 19-913): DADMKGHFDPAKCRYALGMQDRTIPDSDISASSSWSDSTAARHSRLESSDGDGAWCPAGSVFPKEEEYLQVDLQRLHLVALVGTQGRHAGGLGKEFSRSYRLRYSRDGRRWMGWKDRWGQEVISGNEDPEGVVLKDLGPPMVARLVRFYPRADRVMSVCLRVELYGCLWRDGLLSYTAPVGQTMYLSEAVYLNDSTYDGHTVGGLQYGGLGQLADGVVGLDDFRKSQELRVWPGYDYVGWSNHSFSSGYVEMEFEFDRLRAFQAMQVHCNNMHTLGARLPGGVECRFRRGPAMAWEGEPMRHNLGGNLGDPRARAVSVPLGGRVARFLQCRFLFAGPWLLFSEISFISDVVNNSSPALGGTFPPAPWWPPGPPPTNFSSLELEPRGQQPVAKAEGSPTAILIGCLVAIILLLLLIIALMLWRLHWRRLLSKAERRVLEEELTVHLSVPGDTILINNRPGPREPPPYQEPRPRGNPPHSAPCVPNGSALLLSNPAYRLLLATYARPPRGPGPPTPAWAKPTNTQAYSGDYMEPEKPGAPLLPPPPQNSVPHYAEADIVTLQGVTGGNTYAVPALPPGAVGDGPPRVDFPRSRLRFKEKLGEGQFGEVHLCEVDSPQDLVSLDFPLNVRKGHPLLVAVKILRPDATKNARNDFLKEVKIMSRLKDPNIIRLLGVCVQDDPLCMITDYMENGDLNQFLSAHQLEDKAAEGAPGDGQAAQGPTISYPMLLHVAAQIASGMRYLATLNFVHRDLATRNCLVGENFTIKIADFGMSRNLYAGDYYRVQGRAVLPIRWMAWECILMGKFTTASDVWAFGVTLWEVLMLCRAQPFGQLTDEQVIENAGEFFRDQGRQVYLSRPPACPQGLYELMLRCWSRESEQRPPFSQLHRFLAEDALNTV
The subject of assay [2] is anti-glomerular basement membrane antibody-induced nephritis model. Description: In vivo drug efficacy in an anti-glomerular basement membrane antibody-induced nephritis model (urinary albumin). The settings on record: twice daily for 7 days, WKY/NCrlCrlj rats, antibody untreated group = 0%, medium-treated group = 100%.
Assay [3] deals with T1, DDR1 kinase. Description: Evaluation of DDR1 kinase inhibition (LANCE Ultra TR-FRET kinase assay). It is filed as biochemical. Also noted: purchased Carna Biosciences 08-113. The settings on record: DDR1 protein 0.5 nM, LANCE Ultra ULight-poly GAT substrate, 2 hours at room temperature, duplicate; read-out: DDR-1 IC50. A general note: TR-FRET usually uses a lanthanide donor and a delayed reading to cut background.
Target sequence in this assay (Q08345 19-876 isoform Q08345-2 limits assumed): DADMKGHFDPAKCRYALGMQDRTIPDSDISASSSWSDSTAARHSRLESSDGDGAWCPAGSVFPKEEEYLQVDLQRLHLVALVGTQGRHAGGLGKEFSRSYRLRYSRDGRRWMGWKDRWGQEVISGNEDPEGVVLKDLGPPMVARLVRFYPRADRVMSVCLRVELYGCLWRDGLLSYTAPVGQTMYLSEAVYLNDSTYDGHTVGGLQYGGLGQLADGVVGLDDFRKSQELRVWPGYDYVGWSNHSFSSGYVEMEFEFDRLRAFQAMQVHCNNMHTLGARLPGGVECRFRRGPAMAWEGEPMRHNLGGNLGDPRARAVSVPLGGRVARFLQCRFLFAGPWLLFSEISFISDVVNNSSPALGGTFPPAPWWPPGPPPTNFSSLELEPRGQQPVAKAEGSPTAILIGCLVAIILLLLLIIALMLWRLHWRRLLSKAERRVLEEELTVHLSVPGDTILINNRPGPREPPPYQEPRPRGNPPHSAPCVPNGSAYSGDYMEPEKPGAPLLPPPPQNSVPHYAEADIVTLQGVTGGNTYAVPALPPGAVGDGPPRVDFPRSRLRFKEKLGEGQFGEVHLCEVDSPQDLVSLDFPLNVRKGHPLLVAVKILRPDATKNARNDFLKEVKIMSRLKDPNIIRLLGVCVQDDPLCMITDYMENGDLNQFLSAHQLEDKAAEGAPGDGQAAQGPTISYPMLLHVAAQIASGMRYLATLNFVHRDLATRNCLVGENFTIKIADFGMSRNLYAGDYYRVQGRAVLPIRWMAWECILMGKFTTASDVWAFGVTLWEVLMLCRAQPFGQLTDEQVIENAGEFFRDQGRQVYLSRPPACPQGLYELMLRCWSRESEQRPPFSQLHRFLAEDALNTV

As to `Cl.Nc1cc(C(=O)N2CC(c3nn(CC(=O)N4CCC[C@H]4C(F)(F)F)c4cc(F)cc(F)c34)C2)ccn1` [Compound E-2, 2-{3-[1-(2-aminopyridine-4-carbonyl)azetidin-3-yl]-4,6-difluoro-1H-indazol-1-yl}-1-[(2S)-2-(trifluoromethyl)pyrrolidin-1-yl]ethan-1-one hydrochloride], the half-maximal inhibitory concentration (IC50) came out at 37 nM in assay [1] and 1.6 nM in assay [3]. Also, the “Amount (%) of albumin in urine compared with medium-treated group” value in assay [2] (Dose 200 mg/kg) is recorded as 73%.

As to `Nc1cc(C(=O)N2CC(c3nn(CC(=O)N4CCC[C@H]4C(F)(F)F)c4ccccc34)C2)c(F)cn1` [Compound E-3, 2-{3-[1-(2-amino-5-fluoropyridine-4-carbonyl)azetidin-3-yl]-1H-indazol-1-yl}-1-[(2S)-2-(trifluoromethyl)pyrrolidin-1-yl]ethan-1-one], the IC50 in assay [1] worked out at 53 nM; in assay [3], 0.4 nM. Besides, in assay [2] (Dose 100 mg/kg), the “Amount (%) of albumin in urine compared with medium-treated group” value was found to be 67%.

On to `CN(CC(F)(F)F)C(=O)Cn1nc(C2CN(C(=O)c3cc(N)ncc3F)C2)c2ccccc21` [Compound E-240, 2-{3-[1-(2-amino-5-fluoropyridine-4-carbonyl)azetidin-3-yl}-1H-indazol-1-yl}-N-methyl-N-(2,2,2-trifluoroethyl)acetamide], for which the IC50 is 140 nM in assay [1] and 5 nM in assay [3].

Take `Nc1cc(C(=O)N2CC(c3nn(CC(=O)NCC(F)F)c4cccc(F)c34)C2)ccn1` [Compound E-242, 2-{3-[1-(2-aminopyridine-4-carbonyl)azetidin-3-yl]-4-fluoro-1H-indazol-1-yl}-N-(2,2-difluoroethyl)acetamide]: the values for the IC50 in assay [1] and in assay [3] were 740 nM and 30 nM, respectively.

With `N#CC1(NC(=O)Cn2nc(C3CN(C(=O)c4cc(N)ncc4F)C3)c3ccccc32)CC1` [Compound E-244, 2-{3-{1-(2-amino-5-fluoropyridine-4-carbonyl)azetidin-3-yl]-1H-indazol-1-yl}-N-(1-cyanocyclopropyl)acetamide], the IC50 was 420 nM in assay [1] and 41 nM in assay [3].

As to `Cn1nccc1NC(=O)Cn1nc(C2CN(C(=O)c3cc(N)ncc3F)C2)c2ccccc21` [Compound E-247, 2-{3-[1-(2-amino-5-fluoropyridine-4-carbonyl)azetidin-8-yl]-1H-indazol-1-yl}-N-(1-methyl-1H-pyrazol-5-yl)acetamide], the IC50 in assay [1] turned out to be 300 nM; in assay [3], 47 nM.

Turning to `Nc1cc(C(=O)N2CC(c3nn(CC(=O)NC4CC4(F)F)c4ccccc34)C2)c(F)cn1` (stereo not drawn) [Compound E-248, 2-{3-[1-(2-amino-5-fluoropyridine-4-carbonyl)azetidin-3-yl]-1H-indazol-1-yl}-N-(2,2-difluorocyclopropyl)acetamide], the IC50 in assay [1] is 510 nM; in assay [3], 11 nM.

As to `CN(C(=O)Cn1nc(C2CN(C(=O)c3cc(N)ncc3F)C2)c2ccccc21)C1CC(F)(F)C1` [Compound E-250, 2-{3-[1-(2-amino-5-fluoropyridine-4-carbonyl)azetidin-3-yl]-1H-indazol-1-yl}-N-(3,3-difluorocyclobutyl)-N-methylacetamide], the IC50 in assay [1] is 17 nM; in assay [3] it was 2 nM.

Consider `Nc1cc(C(=O)N2CC(c3nn(CC(=O)N(CC(F)(F)F)C4CC4)c4ccccc34)C2)c(F)cn1` [Compound E-251, 2-{3-[1-(2-amino-5-fluoropyridine-4-carbonyl)azetidin-3-yl]-1H-indazol-1-yl}-N-cyclopropyl-N-(2,2,2-trifluoroethyl)acetamide], for which the IC50 in assay [1] was determined as 19 nM; in assay [3], 2.5 nM.

For the compound `CC(C)N(C)C(=O)Cn1nc(C2CN(C(=O)c3cc(N)ncc3F)C2)c2ccccc21` [Compound E-253, 2-{3-[1-(2-amino-5-fluoropyridine-4-carbonyl)azetidin-3-yl]-1H. indazol-1-yl}-N-methyl-N-(propan-2-yl)acetamide], the IC50 turned out to be 170 nM in assay [1] and 9.5 nM in assay [3].

Regarding `CN(C(=O)Cn1nc(C2CN(C(=O)c3cc(N)ncc3F)C2)c2ccccc21)C1COC1` [Compound E-254, 2-{3-{1-(2-amino-5-fluoropyridine-4-carbonyl)azetidin-3-yl]-1H-indazol-1-yl}-N-methyl-N-(oxetan-3-yl)acetamide], the values for the IC50 in assay [1] and in assay [3] were 390 nM and 21 nM, respectively.

Turning to `CN(C(=O)Cn1nc(C2CN(C(=O)c3cc(N)ncc3F)C2)c2ccccc21)C1CCOCC1` [Compound E-255, 2-{8-[1-(2-amino-5-fluoropyridine-4-carbonyl)azetidin-8-yl]-1H-indazol-1-yl}-N-methyl-N-(oxan-4-yl)acetamide], the IC50 in assay [1] amounted to 180 nM; in assay [3], 22 nM.

Take `Nc1cc(C(=O)N2CC(c3nn(CC(=O)N4CCC(F)(F)CC4)c4ccccc34)C2)c(F)cn1` [Compound E-257, 2-{3-[1-(2-amino-5-fluoropyridine-4-carbonyl)azetidin-3-yl]-1H-indazol-1-yl}-1-(4,4-difluoropiperidin-1-yl)ethan-1-one]: the figures for the IC50 in assay [1] and in assay [3] were 42 nM and 13 nM, respectively.

As to `C[C@H](N(C)C(=O)Cn1nc(C2CN(C(=O)c3cc(N)ncc3F)C2)c2ccccc21)C(F)(F)F` [Compound E-261, 2-{3-[1-(2-amino-5-fluoropyridine-4-carbonyl)azetidin-3-yl]-1H-indazol-1-yl}-N-methyl-N-[(2S)-1,1,1-trifluoropropan-2-yl]acetamide], the IC50 turned out to be 6 nM in assay [1] and 4.6 nM in assay [3].

Consider `C[C@@H](N(C)C(=O)Cn1nc(C2CN(C(=O)c3cc(N)ncc3F)C2)c2ccccc21)C(F)(F)F` [Compound E-262, 2-{3-[1-(2-amino-5-fluoropyridine-4-carbonyl)azetidin-3-yl]-1H-indazol-1-yl}-N-methyl-N-[(2R)-1,1,1-trifluoropropan-2-yl]acetamide], for which the values for the IC50 in assay [1] and in assay [3] were 20 nM and 9.3 nM, respectively.

On to `CCN(CC)C(=O)Cn1nc(C2CN(C(=O)c3cc(N)ncc3F)C2)c2ccccc21` [Compound E-263, 2-{3-[1-(2-amino-5-fluoropyridine-4-carbonyl)azetidin-3-yl]-1H-indazol-1-yl}-N,N-diethylacetamide], for which the IC50 worked out at 65 nM in assay [1] and 15 nM in assay [3].

Regarding `CN(CC(F)F)C(=O)Cn1nc(C2CN(C(=O)c3cc(N)ncc3F)C2)c2ccccc21` [Compound E-269, 2-{3-[1-(2-amino-5-fluoropyridine-4-carbonyl)azetidin-3-yl]-1H-indazol-1-yl}-N-(2,2-difluoroethyl)-N-methylacetamide], the half-maximal inhibitory concentration (IC50) is 38 nM in assay [1] and 4.8 nM in assay [3].

For `Nc1cc(C(=O)N2CC(c3nn(CC(=O)N4CCC[C@H]4C(F)F)c4ccccc34)C2)c(F)cn1` [Compound E-272, 2-{3-[1-(2-amino-5-fluoropyridine-4-carbonyl)azetidin-3-yl]-1H-indazol-1-yl}-1-[(2S)-2-(difluoromethyl)pyrrolidin-1-yl]ethan-1-one], the IC50 in assay [1] stood at 3 nM; in assay [3] it was 1.4 nM.

Take `Nc1cc(C(=O)N2CC(c3nn(CC(=O)N4CCC[C@H]4C(F)(F)F)c4cc(F)ccc34)C2)c(F)cn1` [Compound E-275, 2-{3-[1-(2-amino-5-fluoropyridine-4-carbonyl)azetidin-3-yl]-6-fluoro-1H-indazol-1-yl}-1-[(2S)-2-(trifluoromethyl)pyrrolidin-1-yl]ethan-1-one]: the IC50 in assay [1] was 21 nM; in assay [3], 4.8 nM.

`CN(CC(F)(F)F)C(=O)Cn1nc(C2CN(C(=O)c3nc(N)ncc3F)C2)c2ccccc21` [Compound E-276, 2-{3-[1-(2-amino-5-fluoropyrimidine-4-carbonyl)azetidin-3-yl)-1H-indazol-1-yl}-N-methyl-N-(2,2,2-trifluoroethyl)acetamide]: the IC50 in assay [1] was 430 nM; in assay [3], 19 nM.
